# Experiments:
# dopamine receptors [1] = biological target: dopamine receptors (Bos taurus, UniProt P20288); experiment: biochemical; type: binding; settings: 1.6 nM ^3 H-haloperidol, calf caudate membrane homogenate, 37° C., 10 minutes; non-specific binding with 10^-4 M dopamine
# dopamine receptors [2] = experiment: biochemical; type: binding; settings: ^3 H-Haloperidol and ^3 H-Spiroperidol versus ^3 H-dopamine sites; compared with clozapine and chloropromazine
# dopamine receptors [3] = experiment: Receptor Binding Assay, displacement of ^3 H-dopamine binding to calf caudate membranes; settings: for IC50: read-out: ^3 H-Dopamine (IC50), calf caudate membrane homogenate, 37° C., 10 minutes, non-specific binding with 10^-5 M (+)-Butaclamol
# dopamine receptors [4] = experiment: Receptor Binding Assay, displacement of ^3 H-Spiroperidol binding to calf caudate membranes; settings: read-out: ^3 H-Spiroperidol (IC50); 0.15 nM ^3 H-Spiroperidol, calf caudate membrane homogenate, 37° C., 20 minutes; non-specific binding with 10^-5 M (+)-Butaclamol
# Chain of dopamine receptors (Bos taurus, UniProt P20288) (P20288 whole entry): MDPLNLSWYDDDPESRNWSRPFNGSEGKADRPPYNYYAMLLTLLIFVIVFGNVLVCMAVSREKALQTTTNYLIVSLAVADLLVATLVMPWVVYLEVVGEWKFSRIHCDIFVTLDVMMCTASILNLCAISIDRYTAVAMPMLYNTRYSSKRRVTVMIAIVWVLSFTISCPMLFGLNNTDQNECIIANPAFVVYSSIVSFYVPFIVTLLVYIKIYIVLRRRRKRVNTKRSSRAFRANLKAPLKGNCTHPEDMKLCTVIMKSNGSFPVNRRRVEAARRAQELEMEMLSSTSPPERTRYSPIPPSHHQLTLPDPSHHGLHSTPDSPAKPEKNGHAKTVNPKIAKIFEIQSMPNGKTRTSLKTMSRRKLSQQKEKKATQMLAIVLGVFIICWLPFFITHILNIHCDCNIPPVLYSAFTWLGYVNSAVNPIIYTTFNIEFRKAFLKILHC
IC50 (dopamine receptors [1]),IC50 (dopamine receptors [3]),IC50 (dopamine receptors [4]),"^3 H-Dopamine, % at 10^-4 (dopamine receptors [3]; at 10^-4, calf caudate membrane homogenate, 37° C., 10 minutes, 100 µM)",Compound,antagonist ratios (dopamine receptors [2])
0.0024 µM,15 µM,0.86 µM,–,CC(C)(C)C1(O)CCN(CC2c3ccccc3CCc3ccccc32)CC1 [Compound A],comparable to clozapine and chloropromazine
0.0075 µM,0.88 µM,0.27 µM,–,CC(C)(C)C1(O)CCN(CC2c3ccccc3CCc3cc(Cl)ccc32)CC1 (stereo not shown) [Compound B],comparable to clozapine and chloropromazine
0.28 µM,1.7 µM,0.22 µM,–,"CC(C)(C)C1(O)CCN(CC2c3ccccc3CCc3ccc(Br)cc32)CC1.Cl (stereo not shown) [Compound C, 4-tert-butyl-1-[(3-bromo-10,11-dihydro-5H-dibenzo[a,d]cyclohepten-5-yl)methyl]-4-piperidinol hydrochloride]",comparable to clozapine and chloropromazine
0.037 µM,7.2 µM,1.5 µM,–,"CC(C)(C)C1(O)CCN(CC2c3ccccc3C=Cc3ccccc32)CC1.Cl [Compound D, 4-tert-butyl-1-[(5H-dibenzo[a,d]cyclohepten-5yl)methyl]-4-piperidinol, hydrochloride]",comparable to clozapine and chloropromazine
2.5 µM,–,30 µM,27%,"Cl.Cl.NC1CCN(CC2c3ccccc3CCc3ccccc32)CC1 [Compound E, 1-[(10,11-dihydro-5H-dibenzo[a,d]cyclohepten-5-yl)methyl]-4-piperidinamine, dihydrochloride]",comparable to clozapine and chloropromazine
0.31 µM,15 µM,5.9 µM,–,"CC(C)(C)C1(O)CCN(CC2c3ccccc3Oc3ccccc32)CC1.Cl [Compound F, 4-tert-butyl-1-(xanthen-9-ylmethyl)-4-piperidinol, hydrochloride]",comparable to clozapine and chloropromazine
0.29 µM,4.5 µM,0.91 µM,–,"CC(C)(C)C1(O)CCN(CC2c3ccccc3Sc3ccccc32)CC1.Cl [Compound G, 4-tert-butyl-1-(thioxanthen-9-ylmethyl)-4-piperidinol, hydrochloride]",comparable to clozapine and chloropromazine
0.16 µM,60 µM,3.6 µM,–,"CC(C)(C)C1(O)CCN(CC(c2ccccc2)c2ccccc2)CC1 [Compound H, 4-tert-butyl-1-(2,2-diphenylethyl)-4-piperidinol]",comparable to clozapine and chloropromazine
0.5 µM,27 µM,–,–,"O=C1CCN(CC(c2ccccc2)c2ccccc2)CC1C1(O)CCN(CC(c2ccccc2)c2ccccc2)CC1 (stereo not shown) [Compound I, 1-(2,2-diphenylethyl)-3-[1-(2,2-diphenylethyl)-4-hydroxypiperidin-4-yl]-4-piperidinone]",comparable to clozapine and chloropromazine
0.09 µM,25 µM,–,–,"OC1CCN(CC(c2ccccc2)c2ccccc2)CC1C1(O)CCN(CC(c2ccccc2)c2ccccc2)CC1 (stereo not shown) [Compound J, 1-(2,2-diphenylethyl)-3-[1-(2,2-phenylethyl)-4-hydroxypiperidin-4-yl]-4-piperidinol]",comparable to clozapine and chloropromazine
10 µM,–,–,–,"O=C1CCN(CC(c2ccc(Cl)cc2)c2ccc(Cl)cc2)CC1C1(O)CCN(CC(c2ccc(Cl)cc2)c2ccc(Cl)cc2)CC1 (stereo not shown) [Compound K, 1-[2,2-bis(p-chlorophenyl)ethyl]-3-{1-[2,2-bis(p-chlorophenyl)ethyl]-4-hydroxypiperidin-4-yl}-4-piperidinone]",comparable to clozapine and chloropromazine

# — US4188485A, “1-[(10,11-Dihydro-5H-dibenzo[a,d]-cyclohepten-5-yl)methyl]-4-substituted piperidines and related compounds” (G. D. Searle & Co., priority 1978, dated 1980)
